Data reported in patent US20250135006A1, “AMPHIPHILIC TLR7/8 ADJUVANTS AND USES THEREOF” (Pfizer Inc., priority 2023, published 2025).

Columns and labels:
[1] = system: S. pneumoniae serotype 3; assay type: in vivo, female Swiss-Webster mice; conditions: mouse
[2] = biological target: T1, human toll like receptor 7 (hTLR7) (Homo sapiens, UniProt Q9NYK1); test: hTLR7 in-vitro functional assay (HEK-Blue hTLR7 SEAP reporter); assay type: cell-based; conditions: HEK-Blue hTLR7 cells, overnight incubation
T1 construct: host or cells: HEK293 (HEK-Blue hTLR7)
T1 sequence (Q9NYK1 27-1049): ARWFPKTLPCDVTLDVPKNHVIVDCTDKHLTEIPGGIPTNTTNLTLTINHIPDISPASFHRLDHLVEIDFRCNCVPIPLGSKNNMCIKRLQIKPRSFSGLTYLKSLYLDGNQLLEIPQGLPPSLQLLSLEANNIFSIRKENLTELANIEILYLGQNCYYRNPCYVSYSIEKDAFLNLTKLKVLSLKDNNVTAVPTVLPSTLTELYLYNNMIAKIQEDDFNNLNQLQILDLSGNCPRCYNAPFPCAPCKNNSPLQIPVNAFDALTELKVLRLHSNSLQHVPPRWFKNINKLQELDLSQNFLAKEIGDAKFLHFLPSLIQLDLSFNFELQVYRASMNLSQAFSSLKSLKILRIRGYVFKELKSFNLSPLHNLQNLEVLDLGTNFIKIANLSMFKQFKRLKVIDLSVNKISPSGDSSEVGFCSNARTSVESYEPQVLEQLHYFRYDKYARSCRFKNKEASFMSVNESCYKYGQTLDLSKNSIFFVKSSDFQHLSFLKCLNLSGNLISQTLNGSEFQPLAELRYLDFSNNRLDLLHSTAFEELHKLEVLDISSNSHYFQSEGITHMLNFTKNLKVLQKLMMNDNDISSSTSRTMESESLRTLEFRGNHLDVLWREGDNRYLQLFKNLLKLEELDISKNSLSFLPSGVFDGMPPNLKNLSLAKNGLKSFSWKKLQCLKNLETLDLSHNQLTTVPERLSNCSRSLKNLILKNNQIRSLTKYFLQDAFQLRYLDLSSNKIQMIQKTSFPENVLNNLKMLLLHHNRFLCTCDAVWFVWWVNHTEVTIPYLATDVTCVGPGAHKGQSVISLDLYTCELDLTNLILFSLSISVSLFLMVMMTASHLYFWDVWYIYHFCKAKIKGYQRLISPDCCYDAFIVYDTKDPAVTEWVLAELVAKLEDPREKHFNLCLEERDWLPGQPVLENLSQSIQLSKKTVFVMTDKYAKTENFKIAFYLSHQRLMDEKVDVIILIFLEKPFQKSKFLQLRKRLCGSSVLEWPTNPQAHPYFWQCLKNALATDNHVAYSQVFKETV

[3] = system: RSV A strain (M37); test: In vivo immunogenicity with RSV antigen, RSV microneutralization assay; parameters: species or system female BALB/c mice; conditions: 0.5 μg bivalent RSV antigen alone or mixed with 2 nmol adjuvant, intramuscular days 0 and 21, sera day 35
Description: In two independent in vivo immunogenicity studies, female BALB/c mice were immunized intramuscularly twice three weeks apart (days 0 and 21) with 0.5 μg of RSV antigen alone or mixed with 2 nmol of Example 1 adjuvant (Compound 1). Sera were collected at day 35 to determine RSV neutralization antibody titers (nAb). The RSV antigen tested was bivalent comprising a RSV F Protein of Subtype A comprising the sequence of SEQ ID NO: 1 and SEQ ID NO: 2, as well as a RSV F Protein of Subtype B comprising the sequence of SEQ ID NO: 3 and SEQ ID NO: 4.
50% nAb responses against RSV A strain (M37) were measured by an RSV microneutralization assay at 2 weeks post dose 2.

[4] = biological target: T2, human toll like receptor 8 (hTLR8) (Homo sapiens, UniProt Q9NR97); test: hTLR8 in-vitro functional assay (HEK-Blue hTLR8 SEAP reporter); assay type: cell-based; conditions: HEK-Blue hTLR8 cells, overnight incubation
T2 construct: host or cells: HEK293 (HEK-Blue hTLR8)
T2 sequence (Q9NR97 27-1041): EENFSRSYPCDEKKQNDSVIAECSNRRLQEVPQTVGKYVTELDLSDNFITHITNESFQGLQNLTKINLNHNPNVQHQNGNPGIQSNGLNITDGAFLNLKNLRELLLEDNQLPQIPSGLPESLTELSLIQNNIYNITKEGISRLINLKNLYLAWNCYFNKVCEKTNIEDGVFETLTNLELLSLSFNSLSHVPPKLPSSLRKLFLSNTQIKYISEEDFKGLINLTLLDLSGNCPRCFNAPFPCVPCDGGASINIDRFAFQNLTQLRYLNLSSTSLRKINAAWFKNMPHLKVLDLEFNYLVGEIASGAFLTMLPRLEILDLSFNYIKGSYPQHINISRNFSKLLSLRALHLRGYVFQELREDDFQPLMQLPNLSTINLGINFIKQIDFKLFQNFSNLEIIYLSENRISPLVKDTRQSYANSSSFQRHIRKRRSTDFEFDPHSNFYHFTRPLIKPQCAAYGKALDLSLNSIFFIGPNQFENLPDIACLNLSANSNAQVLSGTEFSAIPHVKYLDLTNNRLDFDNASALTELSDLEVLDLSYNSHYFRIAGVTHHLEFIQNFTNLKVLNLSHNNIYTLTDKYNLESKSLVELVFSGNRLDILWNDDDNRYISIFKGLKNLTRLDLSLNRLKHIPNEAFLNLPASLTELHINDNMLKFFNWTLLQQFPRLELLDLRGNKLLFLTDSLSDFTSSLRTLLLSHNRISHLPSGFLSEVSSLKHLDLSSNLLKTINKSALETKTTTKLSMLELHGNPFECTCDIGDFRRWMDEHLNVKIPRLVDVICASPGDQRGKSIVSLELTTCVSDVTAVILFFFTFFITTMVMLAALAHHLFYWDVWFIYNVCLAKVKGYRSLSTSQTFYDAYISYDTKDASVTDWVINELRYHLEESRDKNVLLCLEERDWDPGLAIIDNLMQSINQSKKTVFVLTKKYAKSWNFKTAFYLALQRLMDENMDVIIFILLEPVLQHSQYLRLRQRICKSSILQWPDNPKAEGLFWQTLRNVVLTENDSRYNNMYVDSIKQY

**Q.** Which “OPA geometric mean titers (GMT)” value ([1]; 0.1 μg S. pneumoniae serotype 3-CRM197 antigen with adjuvant (2 nmol; AlPO4 100 μg), IM weeks 0 and 3, sera week 5) does the source give for CCCCc1nc2c(N)nc3cc(CCCN4CCN(C(=O)CCOCCOCCOCCOCCOCCOCCOCCOCCOCCOCCOCCOCCOCCOCCOCCOCCOCCOCCOCCOCCOCCOCCOCCOCCNC(=O)CCOCCOCCOCCOCCNC(=O)O[C@H]5CC[C@@]6(C)C(=CC[C@H]7[C@@H]8CC[C@H]([C@H](C)CCCC(C)C)[C@@]8(C)CC[C@@H]76)C5)CC4)ccc3c2n1CC(C)(CO)CO [Compound 1, (3beta)-cholest-5-en-3-yl {91-[4-(3-{4-amino-2-butyl-1-[3-hydroxy-2-(hydroxymethyl)-2-methylpropyl]-1H-imidazo[4,5-c]quinolin-7-yl}propyl)piperazin-1-yl]-15,91-dioxo-3,6,9,12,19,22,25,28,31,34,37,40,43,46,49,52,55,58,61,64,67,70,73,76,79,82,85,88-octacosaoxa-16-azahennonacont-1-yl}carbamate] here?
**A.** 833

**Q.** What about the “OPA geometric mean titers compared with reference adjuvants” value ([1]; S. pneumoniae serotype 3 antigen, versus aluminum phosphate and free TLR 7/8 agonist) of the same compound?
**A.** higher average OPA geometric mean titers than aluminum phosphate, as well as the free TLR 7/8 agonist molecule

**Q.** What about the EC50 [2] of the same compound?
**A.** 0.122 µM

**Q.** And the “50% neutralizing antibody titers (nAb) to RSV, GMT” value ([3]; Study 1)?
**A.** 7502

**Q.** And the “50% neutralizing antibody titers (nAb) to RSV, GMT” value ([3]; Study 2)?
**A.** 5362

**Q.** What about the EC50 [4] of the same compound?
**A.** 1.36 µM
